Reference: PubChem BioAssay AID1919008 (Molecular Pharmacology Branch, DTP, NCI, 2023)

Tested on: DMS-114 complex spheroids with HUVEC/MSC, growth % test/control
Test: Anticancer human tumor DMS-114 cell line growth inhibition [AhR];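 note: spheroids exposed to agents for 7 days before readout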;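 for viability, T/C: 100% = DMSO vehicle control wells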
Conditions: for IC50: curve of first compound; for viability, T/C: stronger effect = lower value
Procedure, shortened: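 Complex tumor spheroids co-cultured with HUVEC and human MSC stroma; AhR antagonists tested in combination with standard-of-care and investigational agents. Top concentration at or near clinical Cmax (else 10 microM), half-log dilutions; growth expressed as percent test/control.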

[1] = second compound 0.1 µM, first compound 0.0316 µM
[2] = second compound 0.1 µM, first compound 0.1 µM
[3] = second compound 0.1 µM, first compound 0.316 µM
[4] = second compound 0.1 µM, first compound 1 µM
[5] = second compound 0.1 µM, first compound 3.16 µM
[6] = second compound 0.1 µM, first compound 10 µM
[7] = second compound 0.316 µM, first compound 0.0316 µM
[8] = second compound 0.316 µM, first compound 0.1 µM
[9] = second compound 0.316 µM, first compound 0.316 µM
[10] = second compound 0.316 µM, first compound 1 µM
[11] = second compound 0.316 µM, first compound 3.16 µM
[12] = second compound 0.316 µM, first compound 10 µM
[13] = second compound 1 µM, first compound 0.0316 µM
[14] = second compound 1 µM, first compound 0.1 µM
[15] = second compound 1 µM, first compound 0.316 µM
[16] = second compound 1 µM, first compound 1 µM
[17] = second compound 1 µM, first compound 3.16 µM
[18] = second compound 1 µM, first compound 10 µM
[19] = second compound 3.16 µM, first compound 0.0316 µM
[20] = second compound 3.16 µM, first compound 0.1 µM
[21] = second compound 3.16 µM, first compound 0.316 µM
[22] = second compound 3.16 µM, first compound 1 µM
[23] = second compound 3.16 µM, first compound 3.16 µM
[24] = second compound 3.16 µM, first compound 10 µM
[25] = second compound 10 µM, first compound 0.0316 µM
[26] = second compound 10 µM, first compound 0.1 µM
[27] = second compound 10 µM, first compound 0.316 µM
[28] = second compound 10 µM, first compound 1 µM
[29] = second compound 10 µM, first compound 3.16 µM
[30] = second compound 10 µM, first compound 10 µM

| SMILES | IC50 (second compound 0.1 µM) | IC50 (second compound 0.316 µM) | IC50 (second compound 1 µM) | IC50 (second compound 3.16 µM) | IC50 (second compound 10 µM) | viability, T/C [1] | viability, T/C [2] | viability, T/C [3] | viability, T/C [4] | viability, T/C [5] | viability, T/C [6] | viability, T/C [7] | viability, T/C [8] | viability, T/C [9] | viability, T/C [10] | viability, T/C [11] | viability, T/C [12] | viability, T/C [13] | viability, T/C [14] | viability, T/C [15] | also measured |
| --- | --- | --- | --- | --- | --- | --- | --- | --- | --- | --- | --- | --- | --- | --- | --- | --- | --- | --- | --- | --- | --- |
| Nc1ccccc1NC(=O)c1ccc(CNC(=O)OCc2cccnc2)cc1 + Cc1cncc(-c2nc(NCCc3c[nH]c4ccccc34)c3ncn(C(C)C)c3n2)c1 | 592 nM | 574 nM | 610 nM | 348 nM | < 31.6 nM | 97.9% | 87.5% | 63.4% | 39.5% | 16.3% | 9.46% | 89.1% | 82.1% | 61.4% | 39.2% | 17.5% | 8.03% | 85.8% | 88.4% | 64.2% | viability, T/C [16]: 38.1%; viability, T/C [17]: 16.9%; viability, T/C [18]: 8.49%; viability, T/C [19]: 89.6%; viability, T/C [20]: 68.2%; viability, T/C [21]: 57%; viability, T/C [22]: 28.2%; viability, T/C [23]: 12.7%; viability, T/C [24]: 8.11%; viability, T/C [25]: 32%; viability, T/C [26]: 34.8%; viability, T/C [27]: 26.3%; viability, T/C [28]: 10.3%; viability, T/C [29]: 3.46%; viability, T/C [30]: 3.1% |
| O=C(C=Cc1cccc(S(=O)(=O)Nc2ccccc2)c1)NO + Cc1cncc(-c2nc(NCCc3c[nH]c4ccccc34)c3ncn(C(C)C)c3n2)c1 | 451 nM | 402 nM | 429 nM | 355 nM | < 31.6 nM | 100% | 91.9% | 59.5% | 27.5% | 11.7% | 9.54% | 84.3% | 77.7% | 55.4% | 28.3% | 10.2% | 9.73% | 90.1% | 80% | 59.2% | viability, T/C [16]: 26.9%; viability, T/C [17]: 10.7%; viability, T/C [18]: 9.6%; viability, T/C [19]: 78.8%; viability, T/C [20]: 75.5%; viability, T/C [21]: 52.8%; viability, T/C [22]: 21.3%; viability, T/C [23]: 8.43%; viability, T/C [24]: 7.76%; viability, T/C [25]: 46.9%; viability, T/C [26]: 34%; viability, T/C [27]: 20.1%; viability, T/C [28]: 9.92%; viability, T/C [29]: 4.09%; viability, T/C [30]: 4.15% |
| O=C(c1cc(Cc2n[nH]c(=O)c3ccccc23)ccc1F)N1CCN(C(=O)C2CC2)CC1 + Cc1cncc(-c2nc(NCCc3c[nH]c4ccccc34)c3ncn(C(C)C)c3n2)c1 | 9120 nM | 9820 nM | > 10000 nM | > 10000 nM | < 31.6 nM | 92.1% | 102% | 105% | 98.1% | 91.4% | 46.4% | 108% | 96% | 102% | 102% | 89.4% | 49.1% | 96.7% | 94.4% | 76.1% | viability, T/C [16]: 95.2%; viability, T/C [17]: 83.7%; viability, T/C [18]: 58.3%; viability, T/C [19]: 89.9%; viability, T/C [20]: 92.2%; viability, T/C [21]: 77.9%; viability, T/C [22]: 85%; viability, T/C [23]: 73.9%; viability, T/C [24]: 50.4%; viability, T/C [25]: 31.8%; viability, T/C [26]: 46.6%; viability, T/C [27]: 35.3%; viability, T/C [28]: 37%; viability, T/C [29]: 27.8%; viability, T/C [30]: 22.1% |
